Experimental data as given in ChEMBL document CHEMBL4177596, “Flavonoids and their derivatives with β-amyloid aggregation inhibitory activity from the leaves and twigs of Pithecellobium clypearia Benth” (Bioorg Med Chem Lett, 2017).
Calls of active or inactive are those of the source. No cut-off for these calls is given here.

Columns and labels:
[1] = molecular target: Amyloid-beta precursor protein (Homo sapiens) (UniProt P05067); assay: Inhibition of HFIP-pretreated amyloid beta (1 to 42) (unknown origin) self-induced aggregation at 20 uM incubated for 24 hrs under dark condition by thioflavin-T based fluorometric assay relative to control
Amyloid-beta precursor protein (Homo sapiens), sequence (P05067 whole entry): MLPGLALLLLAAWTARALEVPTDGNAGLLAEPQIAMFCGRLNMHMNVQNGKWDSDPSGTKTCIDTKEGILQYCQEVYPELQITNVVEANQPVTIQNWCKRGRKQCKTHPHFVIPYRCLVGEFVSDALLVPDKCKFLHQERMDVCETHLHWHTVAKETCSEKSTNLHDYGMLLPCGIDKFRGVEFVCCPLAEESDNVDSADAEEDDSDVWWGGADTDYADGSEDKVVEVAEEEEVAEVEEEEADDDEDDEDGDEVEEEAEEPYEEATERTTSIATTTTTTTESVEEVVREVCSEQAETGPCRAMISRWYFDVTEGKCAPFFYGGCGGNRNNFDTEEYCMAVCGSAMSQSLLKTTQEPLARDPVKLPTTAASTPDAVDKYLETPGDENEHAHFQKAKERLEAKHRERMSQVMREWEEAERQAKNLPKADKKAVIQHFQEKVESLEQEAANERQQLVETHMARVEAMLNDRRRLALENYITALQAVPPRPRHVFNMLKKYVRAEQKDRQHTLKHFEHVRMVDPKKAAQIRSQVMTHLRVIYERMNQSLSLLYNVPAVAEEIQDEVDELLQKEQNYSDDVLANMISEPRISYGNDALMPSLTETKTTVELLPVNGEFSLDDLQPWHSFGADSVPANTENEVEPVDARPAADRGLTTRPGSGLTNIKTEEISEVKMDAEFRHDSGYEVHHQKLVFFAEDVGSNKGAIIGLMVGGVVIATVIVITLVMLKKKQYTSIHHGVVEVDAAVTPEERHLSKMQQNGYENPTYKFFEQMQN

[2] = tested on: SH-SY5Y; assay: Neuroprotective activity against H2O2-induced cell death in human SH-SY5Y cells assessed as increase in cell viability at 100 uM pretreated for 12 hrs followed by H2O2 challenge measured after 3 hrs by MTT assay; format: functional, cell-based
[3] = tested on: SH-SY5Y; assay: Neuroprotective activity against H2O2-induced morphological changes in human SH-SY5Y cells assessed as reduction in appearance of apoptotic bodies at 100 uM by phase contrast microscopic analysis; format: functional, cell-based
[4] = tested on: SH-SY5Y; assay: Neuroprotective activity against H2O2-induced morphological changes in human SH-SY5Y cells assessed as reduction in cell shrinkage at 100 uM by phase contrast microscopic analysis; format: functional, cell-based

| SMILES | inhibition [1] | Activity [2] | Activity [3] | Activity [4] |
| --- | --- | --- | --- | --- |
| O=C(Oc1cc(O)c2c(c1)O[C@H](c1ccc(O)c(O)c1)[C@@H](O)C2)c1cc(O)c(O)c(O)c1 | Active | Active | – | – |
| O=c1cc(-c2ccc(O)c(O)c2)oc2cc(O)cc(O)c12 | 86.5% | Active | – | – |
| COc1cc(OC)c2c(c1)O[C@H](c1cc(O)c(O)c(OC)c1)[C@@H](O)C2 | Active | – | – | – |
| O=c1c(O)c(-c2ccc(O)c(O)c2)oc2cc(O)cc(O)c12 | 88.4% | Active | – | – |
| Oc1cc([C@@H]2CCc3c(O)cccc3O2)cc(O)c1O | 59.6% | – | – | – |
| COc1cc(O)c(C[C@H](O)Cc2ccc(O)c(OC)c2)c(OC)c1 | Active | – | – | – |
| COc1cc(-c2cc(=O)c3c(OC)cc(O)cc3o2)ccc1O | Active | – | – | – |
| COc1cc(O)cc2oc(-c3ccc(O)cc3)cc(=O)c12 | Active | – | – | – |
| C[C@@H]1Oc2cccc(O)c2C(=O)[C@@H]1O | Active | – | – | – |
| O=C(Oc1cc(O)c2c(c1)O[C@@H](c1cc(O)c(O)c(O)c1)CC2)c1cc(O)c(O)c(O)c1 | Active | Active | – | – |
| O=C(O[C@@H]1Cc2c(O)cc(O)cc2O[C@@H]1c1cc(O)c(O)c(O)c1)c1cc(O)c(O)c(O)c1 | 86.1% | – | – | – |
| C[C@@H]1O[C@@H](Oc2c(-c3cc(O)c(O)c(O)c3)oc3cc(O)cc(O)c3c2=O)[C@H](O)[C@H](O)[C@H]1O | 62.2% | – | – | – |
| O=C(Oc1cc(O)c2c(c1)O[C@H](c1cc(O)c(OC(=O)c3cc(O)c(O)c(O)c3)c(O)c1)[C@@H](O)C2)c1cc(O)c(O)c(O)c1 | 56.3% | Active | – | – |
| C[C@H]1O[C@H](Oc2c(-c3ccc(O)c(O)c3)oc3cc(O)cc(O)c3c2=O)[C@@H](O)[C@@H](O)[C@@H]1O | 70.7% | – | – | – |
| O=C1c2ccc(O)c(O)c2O[C@H](c2ccc(O)c(O)c2)[C@H]1O | 87.7% | Active | Active | Active |
| O=C(Oc1cc(O)c2c(c1)O[C@H](c1cc(O)c(O)c(O)c1)[C@@H](O)C2)c1cc(O)c(O)c(O)c1 | Active | Active | – | – |
